Patent publication US20230183193A1, “4-DIFLUOROMETHYL BENZOYL AMIDES WITH HERBICIDAL ACTION” (BAYER CROPSCIENCE AKTIENGESELLSCHAFT, priority 2017, published 2023)

Tests used:
Veronica persica = test: Pre-emergence herbicidal action, VERPE; assay type: in vivo; conditions: comparison with WO 2011035874, Table H
Source text: (§1) 1. Pre-Emergence Herbicidal Action Against Harmful Plants Seeds of monocotyledonous and dicotyledonous weed plants and crop plants are laid out in sandy loam soil in wood-fiber pots and covered with soil. The compounds of the invention, formulated in the form of wettable powders (WP) or as emulsion concentrates (EC), are then applied to the surface of the covering soil in the form of an aqueous suspension or emulsion at a water application rate equating to […], with addition of 0.2% wetting agent. After the treatment, the pots are placed in a greenhouse and kept under good growth conditions for the trial plants. The damage to the test plants is scored visually after a test period of 3 weeks by comparison with untreated controls (herbicidal activity in percent (%): 100% activity=the plants have died, 0% activity=like control plants).
(§2) For comparison, the herbicidal activity of numerous compounds according to the invention was tested with the structurally closest compounds known from the documents WO 2011/035874, WO 2012/028579 and WO 2012/126932, by the pre- and post-emergence method.

Stellaria media [1] = test: Post-emergence herbicidal action, STEME; assay type: in vivo
Method in brief: (§3)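 Visual percent activity relative to untreated controls, assessed about 3 weeks after foliar treatment, where 0% equals control growth and 100% equals death. Compounds, as wettable powders or emulsion concentrates, are sprayed onto one-leaf-stage plants in sandy loam.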

Alopecurus myosuroides [2] = test: Pre-emergence herbicidal action, ALOMY; assay type: in vivo
Method in brief: (§4)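 Percent herbicidal activity rated by eye 3 weeks after pre-emergence soil-surface application, compared with untreated pots. Seeds sat under sandy loam; sprays carried 0.2% wetting agent.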

Abutilon theophrasti [3] = test: Pre-emergence herbicidal action, ABUTH; assay type: in vivo
Method in brief: as §4

Viola tricolor [4] = test: Post-emergence herbicidal action, VIOTR; assay type: in vivo
Method in brief: as §3

Cyperus serotinus = test: Pre-emergence herbicidal action, CYPES; assay type: in vivo
Method in brief: as §4

ECHCG [5] = test: Pre-emergence herbicidal action, ECHCG; assay type: in vivo; conditions: comparison with WO 2011035874, Table G
Source text: as §1

Viola tricolor [6] = test: Pre-emergence herbicidal action, VIOTR; assay type: in vivo
Method in brief: as §4

Polygonum convolvulus = test: Pre-emergence herbicidal action, POLCO; assay type: in vivo
Source text: as §1, §2

Stellaria media [7] = test: Pre-emergence herbicidal action, STEME; assay type: in vivo; conditions: for Herbicidal efficacy against STEME: comparison with WO 2011035874, Table H
Method in brief: as §4

Avena fatua [8] = test: Pre-emergence herbicidal action, AVEFA; assay type: in vivo
Method in brief: as §4

Amaranthus retroflexus [9] = test: Pre-emergence herbicidal action, AMARE; assay type: in vivo; conditions: for Herbicidal efficacy against AMARE: comparison with WO 2011035874, Table H
Method in brief: as §4

Matricaria inodora [10] = test: Post-emergence herbicidal action, MATIN; assay type: in vivo; conditions: 80 g/ha, comparison with WO2011035874, Table F
Protocol: Seeds of monocotyledonous and dicotyledonous weed and crop plants are laid out in sandy loam soil in wood-fiber pots, covered with soil and cultivated in a greenhouse under good growth conditions. 2 to 3 weeks after sowing, the test plants are treated at the one-leaf stage. The compounds of the invention, formulated in the form of wettable powders (WP) or as emulsion concentrates (EC), are then sprayed onto the green parts of the plants in the form of an aqueous suspension or emulsion at a water application rate equating to […], with addition of 0.2% wetting agent. After the test plants have been left to stand in the greenhouse under optimal growth conditions for about 3 weeks, the action of the preparations is assessed visually in comparison to untreated controls (herbicidal action in percent (%): 100% activity=the plants have died, 0% activity=like control plants). […] At the same time, inventive compounds leave Gramineae crops such as barley, wheat, rye, millet/sorghum, corn or rice virtually undamaged when applied post-emergence, even at high active compound dosages. In addition, some substances are also harmless to dicotyledonous crops such as soya, cotton, oilseed rape, sugar beet or potatoes. Some of the compounds according to the invention have high selectivity and are therefore suitable for controlling unwanted vegetation in agricultural crops by the post-emergence method. The data of Tables C and D below illustrate, in an exemplary manner, the […] herbicidal action of the compounds according to the invention, the herbicidal activity being stated in percent.
as §2

Setaria viridis [11] = test: Pre-emergence herbicidal action, SETVI; assay type: in vivo
Method in brief: as §4

Pharbitis purpureum = test: Post-emergence herbicidal action, PHBPU; assay type: in vivo; conditions: 80 g/ha
Method in brief: as §3

Setaria viridis [12] = test: Post-emergence herbicidal action, SETVI; assay type: in vivo
Method in brief: as §3

Matricaria inodora [13] = test: Pre-emergence herbicidal action, MATIN; assay type: in vivo; conditions: for Herbicidal efficacy against MATIN: Table K
Method in brief: as §4

Abutilon theophrasti [14] = test: Post-emergence herbicidal action, ABUTH; assay type: in vivo; conditions: 80 g/ha
Method in brief: as §3

ECHCG [15] = test: Pre-emergence herbicidal action, ECHCG; assay type: in vivo, Echinochloa crus-galli
Alopecurus myosuroides [16] = test: Post-emergence herbicidal action, ALOMY; assay type: in vivo
Method in brief: as §3

Amaranthus retroflexus [17] = test: Post-emergence herbicidal action, AMARE; assay type: in vivo; conditions: 80 g/ha, Table D
Method in brief: as §3

Avena fatua [18] = test: Post-emergence herbicidal action, AVEFA; assay type: in vivo
Method in brief: as §3

ECHCG [19] = test: Post-emergence herbicidal action, ECHCG; assay type: in vivo; conditions: 80 g/ha, Table C
Method in brief: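 Weed and crop plants grown in sandy loam in the greenhouse, treated at the one-leaf stage 2–3 weeks after sowing. Damage scored visually after about 3 weeks vs untreated controls (0% = control, 100% = dead).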

[20] = 80 g/ha, comparison with WO2011035874, Table F
[21] = 320 g/ha, comparison with WO 2011035874, Table G
[22] = 320 g/ha, comparison with WO 2011035874, Table H
[23] = comparison with WO2011035874, Table F
[24] = dosage 320 g/ha, scored visually after 3 weeks vs untreated controls
[25] = 80 g/ha, comparison with WO 2011035874, Table G
[26] = 80 g/ha, comparison with WO 2011035874, Table H

CC[S+]([O-])c1c(C(F)F)ccc(C(=O)Nc2nnnn2C)c1I (stereo not drawn) [Example 1-77]
0%: Herbicidal efficacy against AVEFA (Avena fatua [8]; [21]) | Herbicidal efficacy against MATIN (Matricaria inodora [10])
30%: Herbicidal efficacy against CYPES (Cyperus serotinus; [21]) | Herbicidal efficacy against POLCO (Polygonum convolvulus; [22])
60%: Herbicidal efficacy against VIOTR (Viola tricolor [4]; [20]) | Herbicidal efficacy against VIOTR (Viola tricolor [6]; [22])
40%: Herbicidal efficacy against PHBPU (Pharbitis purpureum; [23])
90%: Herbicidal efficacy against VERPE (Veronica persica; 320 g/ha)
100%: Herbicidal efficacy against ABUTH (Abutilon theophrasti [3]; [21]) | Herbicidal efficacy against AMARE (Amaranthus retroflexus [9]; 320 g/ha)
80%: Herbicidal efficacy against STEME (Stellaria media [1]; [20]) | Herbicidal efficacy against STEME (Stellaria media [7]; 320 g/ha)
10%: Herbicidal efficacy against ALOMY (Alopecurus myosuroides [2]; [21])
20%: Herbicidal efficacy against SETVI (Setaria viridis [11]; [21])
70%: Herbicidal efficacy against ECHCG (ECHCG [5]; 320 g/ha)

Cn1nnnc1NC(=O)c1ccc(C(F)F)c(S(C)(=O)=O)c1Cl [Example 1-51]
30: Herbicidal efficacy against POLCO (Polygonum convolvulus; dosage 20 g/ha, Table K)
60%: Herbicidal efficacy against VIOTR (Viola tricolor [6]; [26]) | Herbicidal efficacy against SETVI (Setaria viridis [11]; [25])
80: Herbicidal efficacy against ALOMY (Alopecurus myosuroides [2]; 20 g/ha) | Herbicidal efficacy against POLCO (Polygonum convolvulus; dosage 80 g/ha, Table K)
30%: Herbicidal efficacy against ECHCG (ECHCG [5]; 80 g/ha)
100%: herbicidal activity SETVI (Setaria viridis [12]; 80 g/ha, Table C) | herbicidal activity MATIN (Matricaria inodora [13]; [24]) | herbicidal activity ABUTH (Abutilon theophrasti [14]; Table D) | Herbicidal efficacy against VERPE (Veronica persica; 80 g/ha) | herbicidal activity ALOMY (Alopecurus myosuroides [16]; 80 g/ha, Table C) | Herbicidal activity STEME (Stellaria media [1]; 80 g/ha, Table D) | herbicidal activity ALOMY (Alopecurus myosuroides [2]; [24]) | Herbicidal efficacy against ABUTH (Abutilon theophrasti [3]; [25]) | herbicidal activity ABUTH (Abutilon theophrasti [3]; [24]) | herbicidal activity VIOTR (Viola tricolor [4]; 80 g/ha, Table D) | herbicidal activity CYPES (Cyperus serotinus; [24]) | herbicidal activity VIOTR (Viola tricolor [6]; [24]) | herbicidal activity AMARE (Amaranthus retroflexus [17]) | Herbicidal activity STEME (Stellaria media [7]; [24]) | herbicidal activity AVEFA (Avena fatua [8]; [24]) | herbicidal activity AVEFA (Avena fatua [18]; 80 g/ha, Table C) | Herbicidal efficacy against AMARE (Amaranthus retroflexus [9]; 80 g/ha) | herbicidal activity AMARE (Amaranthus retroflexus [9]; [24]) | herbicidal activity SETVI (Setaria viridis [11]; [24]) | Herbicidal activity PHBPU (Pharbitis purpureum; Table D) | Herbicidal activity ECHCG (ECHCG [19])
60: Herbicidal efficacy against AVEFA (Avena fatua [18]; 5 g/ha)
10%: Herbicidal efficacy against ALOMY (Alopecurus myosuroides [2]; [25])
80%: Herbicidal efficacy against ABUTH (Abutilon theophrasti [14]; [23])
40%: Herbicidal efficacy against STEME (Stellaria media [1]; [20])
0%: Herbicidal efficacy against CYPES (Cyperus serotinus; [25]) | Herbicidal efficacy against POLCO (Polygonum convolvulus; [26]) | Herbicidal efficacy against AVEFA (Avena fatua [8]; [25])
90%: Herbicidal efficacy against STEME (Stellaria media [7]; 80 g/ha)
100: Herbicidal efficacy against SETVI (Setaria viridis [12]; 20 g/ha) | Herbicidal efficacy against SETVI (Setaria viridis [12]; 80 g/ha) | Herbicidal efficacy against MATIN (Matricaria inodora [13]; dosage 80 g/ha) | Herbicidal efficacy against MATIN (Matricaria inodora [13]; dosage 320 g/ha) | Herbicidal efficacy against ECHCG (ECHCG [15]; 20 g/ha) | Herbicidal efficacy against ECHCG (ECHCG [15]; 80 g/ha) | Herbicidal efficacy against ECHCG (ECHCG [15]; 320 g/ha) | Herbicidal efficacy against ALOMY (Alopecurus myosuroides [16]; 80 g/ha) | Herbicidal efficacy against STEME (Stellaria media [1]; 5 g/ha) | Herbicidal efficacy against STEME (Stellaria media [1]; 20 g/ha) | Herbicidal efficacy against STEME (Stellaria media [1]; 80 g/ha) | Herbicidal efficacy against ALOMY (Alopecurus myosuroides [2]; 80 g/ha) | Herbicidal efficacy against ALOMY (Alopecurus myosuroides [2]; 320 g/ha) | Herbicidal efficacy against ABUTH (Abutilon theophrasti [3]; dosage 20 g/ha, Table K) | Herbicidal efficacy against ABUTH (Abutilon theophrasti [3]; dosage 80 g/ha, Table K) | Herbicidal efficacy against ABUTH (Abutilon theophrasti [3]; dosage 320 g/ha, Table K) | Herbicidal efficacy against VIOTR (Viola tricolor [4]; 5 g/ha) | Herbicidal efficacy against VIOTR (Viola tricolor [4]; 20 g/ha) | Herbicidal efficacy against VIOTR (Viola tricolor [4]; 80 g/ha) | Herbicidal efficacy against CYPES (Cyperus serotinus; 320 g/ha) | Herbicidal efficacy against VIOTR (Viola tricolor [6]; dosage 20 g/ha, Table K) | Herbicidal efficacy against VIOTR (Viola tricolor [6]; dosage 80 g/ha, Table K) | Herbicidal efficacy against VIOTR (Viola tricolor [6]; dosage 320 g/ha, Table K) | Herbicidal efficacy against AVEFA (Avena fatua [8]; 320 g/ha) | Herbicidal efficacy against AVEFA (Avena fatua [18]; 80 g/ha) | Herbicidal efficacy against SETVI (Setaria viridis [11]; 20 g/ha) | Herbicidal efficacy against SETVI (Setaria viridis [11]; 80 g/ha) | Herbicidal efficacy against SETVI (Setaria viridis [11]; 320 g/ha)
90: Herbicidal efficacy against SETVI (Setaria viridis [12]; 5 g/ha) | Herbicidal efficacy against MATIN (Matricaria inodora [13]; dosage 20 g/ha) | Herbicidal efficacy against ALOMY (Alopecurus myosuroides [16]; 20 g/ha) | Herbicidal efficacy against CYPES (Cyperus serotinus; 20 g/ha) | Herbicidal efficacy against CYPES (Cyperus serotinus; 80 g/ha) | Herbicidal efficacy against POLCO (Polygonum convolvulus; dosage 320 g/ha, Table K) | Herbicidal efficacy against AVEFA (Avena fatua [8]; 80 g/ha) | Herbicidal efficacy against AVEFA (Avena fatua [18]; 20 g/ha)
40: Herbicidal efficacy against ALOMY (Alopecurus myosuroides [16]; 5 g/ha)
